Experimental data reported in PubChem BioAssay (NCI).
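Compound exposure: 48 hours, 5 concentrations, 96-well plates. Abbreviation: GI50, concentration required for 50% inhibition of growth. TGI: total growth inhibition.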

How the values were obtained:
Assay in all cases: NCI-60 cell line screen, 48 h
HL-60(TB) leukemia = test system: HL-60(TB) leukemia
HOP-92 NSCLC = test system: HOP-92 NSCLC
OVCAR-3 ovarian = test system: OVCAR-3 ovarian
T-47D breast = test system: T-47D breast
HOP-62 NSCLC = test system: HOP-62 NSCLC
SR leukemia = test system: SR leukemia
MDA-MB-435 = test system: MDA-MB-435
NCI-H23 lung = test system: NCI-H23 lung
UACC-257 melanoma = test system: UACC-257 melanoma
SF-295 CNS = test system: SF-295 CNS
U251 CNS = test system: U251 CNS
SNB-19 CNS = test system: SNB-19 CNS
786-0 renal = test system: 786-0 renal
UACC-62 melanoma = test system: UACC-62 melanoma
K-562 leukemia = test system: K-562 leukemia
HCC-2998 colon = test system: HCC-2998 colon
NCI/ADR-RES ovarian = test system: NCI/ADR-RES ovarian
UO-31 renal = test system: UO-31 renal
LOX IMVI melanoma = test system: LOX IMVI melanoma
SF-539 CNS = test system: SF-539 CNS
OVCAR-5 ovarian = test system: OVCAR-5 ovarian
ACHN renal = test system: ACHN renal
OVCAR-8 ovarian = test system: OVCAR-8 ovarian
NCI-H226 lung = test system: NCI-H226 lung
HT29 colon = test system: HT29 colon
A498 renal = test system: A498 renal
CCRF-CEM leukemia = test system: CCRF-CEM leukemia
HS 578T breast = test system: HS 578T breast
MOLT-4 leukemia = test system: MOLT-4 leukemia
HCT-116 colon = test system: HCT-116 colon
DU-145 prostate = test system: DU-145 prostate
HCT-15 colon = test system: HCT-15 colon
PC-3 prostate = test system: PC-3 prostate
SK-MEL-5 melanoma = test system: SK-MEL-5 melanoma
SW-620 colon = test system: SW-620 colon
SK-OV-3 ovarian = test system: SK-OV-3 ovarian
SK-MEL-28 melanoma = test system: SK-MEL-28 melanoma
RXF 393 renal = test system: RXF 393 renal
A549 NSCLC = test system: A549 NSCLC
KM12 colon = test system: KM12 colon
M14 melanoma = test system: M14 melanoma
RPMI-8226 leukemia = test system: RPMI-8226 leukemia
SN12C renal = test system: SN12C renal
MDA-MB-231 breast = test system: MDA-MB-231 breast
MALME-3M melanoma = test system: MALME-3M melanoma
SK-MEL-2 melanoma = test system: SK-MEL-2 melanoma
SF-268 CNS = test system: SF-268 CNS
EKVX NSCLC = test system: EKVX NSCLC
NCI-H460 lung = test system: NCI-H460 lung
OVCAR-4 ovarian = test system: OVCAR-4 ovarian
BT-549 breast = test system: BT-549 breast
TK-10 renal = test system: TK-10 renal
COLO 205 colon = test system: COLO 205 colon
MCF7 breast = test system: MCF7 breast
CAKI-1 renal = test system: CAKI-1 renal
SNB-75 CNS = test system: SNB-75 CNS

COc1cc(/C=C/C(=O)c2cc(F)c(Cl)cc2Cl)cc(OC)c1OC
GI50 (HL-60(TB) leukemia): 16.6 µM | TGI (HL-60(TB) leukemia): 71.9 µM | GI50 (HOP-92 NSCLC): 25.9 µM | TGI (HOP-92 NSCLC): > 100 µM | GI50 (OVCAR-3 ovarian): 14.5 µM | TGI (OVCAR-3 ovarian): 40 µM | GI50 (T-47D breast): 41.2 µM | TGI (T-47D breast): > 100 µM | GI50 (HOP-62 NSCLC): 82.2 µM | TGI (HOP-62 NSCLC): > 100 µM | GI50 (SR leukemia): 5.23 µM | TGI (SR leukemia): 39.1 µM | GI50 (MDA-MB-435): 28.1 µM | TGI (MDA-MB-435): > 100 µM | GI50 (NCI-H23 lung): 34.2 µM | TGI (NCI-H23 lung): > 100 µM | GI50 (UACC-257 melanoma): 42 µM | TGI (UACC-257 melanoma): > 100 µM | GI50 (SF-295 CNS): 44.4 µM | TGI (SF-295 CNS): > 100 µM | GI50 (U251 CNS): 29.3 µM | TGI (U251 CNS): > 100 µM | GI50 (SNB-19 CNS): 39.6 µM | TGI (SNB-19 CNS): > 100 µM | GI50 (786-0 renal): 22.9 µM | TGI (786-0 renal): 97.2 µM | GI50 (UACC-62 melanoma): 24.8 µM | TGI (UACC-62 melanoma): > 100 µM | GI50 (K-562 leukemia): 11.4 µM | TGI (K-562 leukemia): 27.7 µM | GI50 (HCC-2998 colon): 73 µM | TGI (HCC-2998 colon): > 100 µM | GI50 (NCI/ADR-RES ovarian): 23.9 µM | TGI (NCI/ADR-RES ovarian): 83.8 µM | GI50 (UO-31 renal): 16.3 µM | TGI (UO-31 renal): 32.8 µM | GI50 (LOX IMVI melanoma): 25.1 µM | TGI (LOX IMVI melanoma): 91.2 µM | GI50 (SF-539 CNS): 28.1 µM | TGI (SF-539 CNS): > 100 µM | GI50 (OVCAR-5 ovarian): 25.2 µM | TGI (OVCAR-5 ovarian): > 100 µM | GI50 (ACHN renal): 60.6 µM | TGI (ACHN renal): > 100 µM | GI50 (OVCAR-8 ovarian): 15.8 µM | TGI (OVCAR-8 ovarian): 33.6 µM | GI50 (NCI-H226 lung): 79.9 µM | TGI (NCI-H226 lung): > 100 µM | GI50 (HT29 colon): 15.2 µM | TGI (HT29 colon): 45 µM | GI50 (A498 renal): > 100 µM | TGI (A498 renal): > 100 µM | GI50 (CCRF-CEM leukemia): 23.8 µM | TGI (CCRF-CEM leukemia): 76.4 µM | GI50 (HS 578T breast): 28.7 µM | TGI (HS 578T breast): > 100 µM | GI50 (MOLT-4 leukemia): 12.9 µM | TGI (MOLT-4 leukemia): 52.9 µM | GI50 (HCT-116 colon): 12.6 µM | TGI (HCT-116 colon): 25.1 µM | GI50 (DU-145 prostate): 68.6 µM | TGI (DU-145 prostate): > 100 µM | GI50 (HCT-15 colon): 19.8 µM | TGI (HCT-15 colon): 54.4 µM | GI50 (PC-3 prostate): 12.5 µM | TGI (PC-3 prostate): 85.8 µM | GI50 (SK-MEL-5 melanoma): 49.6 µM | TGI (SK-MEL-5 melanoma): > 100 µM | GI50 (SW-620 colon): 31.9 µM | TGI (SW-620 colon): > 100 µM | GI50 (SK-OV-3 ovarian): > 100 µM | TGI (SK-OV-3 ovarian): > 100 µM | GI50 (SK-MEL-28 melanoma): 32 µM | TGI (SK-MEL-28 melanoma): > 100 µM | GI50 (RXF 393 renal): 17.2 µM | TGI (RXF 393 renal): 62.2 µM | GI50 (A549 NSCLC): 39.2 µM | TGI (A549 NSCLC): > 100 µM | GI50 (KM12 colon): 10.5 µM | TGI (KM12 colon): 26.4 µM | GI50 (M14 melanoma): 43.9 µM | TGI (M14 melanoma): > 100 µM | GI50 (RPMI-8226 leukemia): 15.2 µM | TGI (RPMI-8226 leukemia): 52.9 µM | GI50 (SN12C renal): 27.7 µM | TGI (SN12C renal): > 100 µM | GI50 (MDA-MB-231 breast): 15.7 µM | TGI (MDA-MB-231 breast): > 100 µM | GI50 (MALME-3M melanoma): 10.8 µM | TGI (MALME-3M melanoma): 37.7 µM | GI50 (SK-MEL-2 melanoma): 15.8 µM | TGI (SK-MEL-2 melanoma): 58.7 µM | GI50 (SF-268 CNS): 68.9 µM | TGI (SF-268 CNS): > 100 µM | GI50 (EKVX NSCLC): > 100 µM | TGI (EKVX NSCLC): > 100 µM | GI50 (NCI-H460 lung): 48.3 µM | TGI (NCI-H460 lung): > 100 µM | GI50 (OVCAR-4 ovarian): 48.6 µM | TGI (OVCAR-4 ovarian): > 100 µM | GI50 (BT-549 breast): 53.2 µM | TGI (BT-549 breast): > 100 µM | GI50 (TK-10 renal): 31 µM | TGI (TK-10 renal): > 100 µM | GI50 (COLO 205 colon): 14.7 µM | TGI (COLO 205 colon): 45.5 µM | GI50 (MCF7 breast): 32.3 µM | TGI (MCF7 breast): > 100 µM | GI50 (CAKI-1 renal): 27.6 µM | TGI (CAKI-1 renal): > 100 µM | GI50 (SNB-75 CNS): 56.3 µM | TGI (SNB-75 CNS): > 100 µM
